One assay relates to HCT116 MTAP−/−. Description: Inhibition of cellular proliferation (Cell Titer Glo), HCT116 MTAP-/-. The class given is cell-based. As to conditions: Homo sapiens, HCT-116, 96 h, 4 days, read-out: 4 Day Relative Growth Inhibition (MTAP −/−). In a few lines:
(§1)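 Isogenic HCT116 MTAP+/+ and MTAP−/− cells treated 24 h after plating with 10-point 3-fold dilutions, then grown 4 days at 37 °C/5% CO2. ATP content read by Cell Titer Glo luminescence, blank-subtracted and normalized to 0.2% DMSO control, plotted as percent proliferation change versus log molar concentration.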
On the technique in general: ATP-based viability assays read luminescence as a measure of living cells.

For assay [1], the system named is MAT2A activity (SAM) in HCT116 cells with deleted MTAP gene. Briefly: Cellular assay of target engagement (SAM) by LC-MS/MS. The class given is cell-based. As to conditions: Homo sapiens, HCT-116; HCT116 MTAP −/−, 72 hrs; read-out: Cell 72 h SAM Inhibition (MTAP −/−). In a few lines: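 HCT116 MTAP-deleted cells treated with 10-point 3-fold DMSO serial dilutions of compound for 72 hrs at 37° C. Cells lysed in cold 80% methanol/acetic acid extraction buffer with d3-SAM internal standard; SAM quantified by LC-MS/MS (MRM m/z 399.2→250.1).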

For another assay, the system named is HCT116 MTAP+/+. Description: Inhibition of cellular proliferation (Cell Titer Glo), HCT116 MTAP+/+. The class given is cell-based. As to conditions: Homo sapiens, HCT-116, 96 h, 4 days, read-out: 4 Day Relative Growth Inhibition (MTAP +/+). Put shortly:
as §1

A further assay addresses T1, MAT2A homodimer (Homo sapiens, UniProt P31153).
T1 construct: inferred from Ni sepharose purification and imidazole elution; made in house; host or cells: SF9 insect cells, recombinant baculovirus (Bac to Bac, pFASTBAC1)
Briefly: MAT2A biochemical assay (phosphate release, PiColorLock Gold). The following applies: recombinant MAT2A homodimer, 60 min pre-incubation, 25° C.; read-out: Enzyme Inhibition. Put shortly: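 Baculovirus/Sf9-expressed, Ni-purified MAT2A homodimer (4 µg/mL in pH 8.0 Tris/KCl/MgCl2 buffer) preincubated 60 min at 25 °C with compound (2% DMSO final). Substrate mix of 500 µM ATP and 400 µM L-methionine added; 60 min at 25 °C; released phosphate quantified colorimetrically against a phosphate standard curve.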

Some results are limits rather than exact numbers.

T1 sequence (P31153 whole entry): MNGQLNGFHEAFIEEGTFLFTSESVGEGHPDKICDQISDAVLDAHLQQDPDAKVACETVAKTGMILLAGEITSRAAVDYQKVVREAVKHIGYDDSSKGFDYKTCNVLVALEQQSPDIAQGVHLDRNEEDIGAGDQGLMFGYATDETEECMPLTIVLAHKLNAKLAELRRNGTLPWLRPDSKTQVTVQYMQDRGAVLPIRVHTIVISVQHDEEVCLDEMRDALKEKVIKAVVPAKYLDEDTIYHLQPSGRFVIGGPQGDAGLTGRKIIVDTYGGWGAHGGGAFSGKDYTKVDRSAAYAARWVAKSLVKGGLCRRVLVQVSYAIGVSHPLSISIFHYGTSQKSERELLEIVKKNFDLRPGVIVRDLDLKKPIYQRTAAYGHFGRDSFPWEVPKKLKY

Take `Cc1ccc(-c2c(=O)n(-c3ccc4nn(C)cc4c3)nc3ccc(OCC4CC4)nc23)cn1` [Example 302]: the IC50 with HCT116 MTAP−/− is < 100 nM; in assay [1] it was < 100 nM; in the assay with HCT116 MTAP+/+, ≥ 1000 nM; at MAT2A homodimer, < 100 nM.
On to `Cn1cc2cc(-n3nc4ccc(OCC(F)F)nc4c(C4CCCCC4)c3=O)ccc2n1` [Example 206, 4-cyclohexyl-6-(2,2-difluoroethoxy)-2-(2-methyl-2H-indazol-5-yl)pyrido[3,2-c]pyridazin-3(2H)-one], for which the IC50 is 100 to 1000 nM in the assay on HCT116 MTAP−/−, 100 to 1000 nM in assay [1], ≥ 1000 nM in the assay on HCT116 MTAP+/+ and < 100 nM on MAT2A homodimer.
Consider `CC(C)Oc1ccc2nn(-c3ccc4ncsc4c3)c(=O)c(-c3ccc(Br)cc3)c2n1` [Example 202, 2-(benzo[d]thiazol-6-yl)-4-(4-bromophenyl)-6-isopropoxypyrido[3,2-c]pyridazin-3(2H)-one], for which the IC50 in the assay on HCT116 MTAP−/− is < 100 nM; in assay [1] it was < 100 nM; in the assay on HCT116 MTAP+/+, ≥ 1000 nM; at MAT2A homodimer, < 100 nM.
On to `Cn1cc2cc(-n3nc4ccc(NCC5CC5)nc4c(-c4ccc(C5CC5)nc4)c3=O)ccc2n1` [Example 315], for which the IC50 was < 100 nM with HCT116 MTAP−/−, < 100 nM in assay [1], ≥ 1000 nM in the assay on HCT116 MTAP+/+ and < 100 nM at MAT2A homodimer.
Regarding `Cn1cc2cc(-n3nc4ccc(OCC(F)F)nc4c(-c4ccc(OC(F)F)cc4)c3=O)ccc2n1` [Example 125, 6-(2,2-difluoroethoxy)-4-(4-(difluoromethoxy)phenyl)-2-(2-methyl-2H-indazol-5-yl)pyrido[3,2-c]pyridazin-3(2H)-one], the IC50 with HCT116 MTAP−/− was < 100 nM; in assay [1] it was < 100 nM; with HCT116 MTAP+/+, 100 to 1000 nM; on MAT2A homodimer it was < 100 nM.
As for `CCOc1ccc2nn(-c3ccc4nn(C)cc4c3)c(=O)c(-c3ccc(OC(F)(F)F)nc3)c2n1` [Example 121], the IC50 in the assay on HCT116 MTAP−/− is < 100 nM; in assay [1] it was < 100 nM; in the assay with HCT116 MTAP+/+ it was ≥ 1000 nM; on MAT2A homodimer it was < 100 nM.
`O=c1c(-c2ccc(OC(F)F)nc2)c2nc(OCC(F)F)ccc2nn1-c1ccc2ncsc2c1` [Example 148]: the IC50 with HCT116 MTAP−/− was 100 to 1000 nM; in assay [1], 100 to 1000 nM; in the assay on HCT116 MTAP+/+ it was ≥ 1000 nM; at MAT2A homodimer, < 100 nM.
With `Cn1cc2cc(-n3nc4ccc(OCC5CCC5)nc4c(-c4ccc(OC(F)F)cc4)c3=O)ccc2n1` [Example 131], the IC50 in the assay on HCT116 MTAP−/− was ≥ 1000 nM; in assay [1], 100 to 1000 nM; in the assay with HCT116 MTAP+/+, ≥ 1000 nM; on MAT2A homodimer, < 100 nM.
In the case of `Cn1cc2cc(-n3nc4ccc(OC5CC5)nc4c(-c4ccc(Cl)cc4)c3=O)ccc2n1` [Example 113], the IC50 is 100 to 1000 nM in the assay with HCT116 MTAP−/−, < 100 nM in assay [1], ≥ 1000 nM in the assay on HCT116 MTAP+/+ and < 100 nM on MAT2A homodimer.
Take `CCNc1ccc2nn(-c3ccc4nn(C)cc4c3)c(=O)c(-c3ccc(OC)nc3)c2n1` [Example 307]: the IC50 is < 100 nM in the assay with HCT116 MTAP−/−, < 100 nM in assay [1], ≥ 1000 nM in the assay with HCT116 MTAP+/+ and < 100 nM at MAT2A homodimer.
As for `[2H]C([2H])([2H])C([2H])([2H])Oc1ccc2nn(-c3ccc4nn(C)cc4c3)c(=O)c(-c3ccc(OC(F)F)cc3)c2n1` [Example 161], the IC50 in the assay on HCT116 MTAP−/− is < 100 nM; in assay [1] it was < 100 nM; in the assay on HCT116 MTAP+/+, ≥ 1000 nM; at MAT2A homodimer it was < 100 nM.
`CN(C)c1c2cc(-n3nc4ccc(OCC(F)F)nc4c(-c4ccc(OC(F)F)cc4)c3=O)ccc2nn1C` [Example 203, 6-(2,2-difluoroethoxy)-4-(4-(difluoromethoxy)phenyl)-2-(3-(dimethylamino)-2-methyl-2H-indazol-5-yl)pyrido[3,2-c]pyridazin-3(2H)-one]: the IC50 is < 100 nM with HCT116 MTAP−/−, < 100 nM in assay [1], 100 to 1000 nM in the assay with HCT116 MTAP+/+ and < 100 nM at MAT2A homodimer.
In the case of `Cn1cc2cc(-n3nc4ccc(OCC(F)F)nc4c(-c4ccc(Br)cc4)c3=O)ccc2n1` [Example 200, 4-(4-bromophenyl)-6-(2,2-difluoroethoxy)-2-(2-methyl-2H-indazol-5-yl)pyrido[3,2-c]pyridazin-3(2H)-one], the IC50 was < 100 nM with HCT116 MTAP−/−, < 100 nM in assay [1], ≥ 1000 nM in the assay with HCT116 MTAP+/+ and < 100 nM on MAT2A homodimer.
`COC1CC=C(c2c(=O)n(-c3ccc4nn(C)cc4c3)nc3ccc(OCC(F)F)nc23)CC1` (centres unmarked) [Example 152]: the IC50 in the assay with HCT116 MTAP−/− is < 100 nM; in assay [1], < 100 nM; in the assay on HCT116 MTAP+/+, 100 to 1000 nM; at MAT2A homodimer, < 100 nM.
`Cn1cc2cc(-n3nc4c(C(F)F)cc(OCC(F)F)nc4c(-c4ccc(OC(F)F)cc4)c3=O)ccc2n1` [Example 210, 6-(2,2-difluoroethoxy)-4-(4-(difluoromethoxy)phenyl)-8-(difluoromethyl)-2-(2-methyl-2H-indazol-5-yl)pyrido[3,2-c]pyridazin-3(2H)-one]: the IC50 was 100 to 1000 nM in the assay on HCT116 MTAP−/−, < 100 nM in assay [1], ≥ 1000 nM in the assay on HCT116 MTAP+/+ and < 100 nM on MAT2A homodimer.
Take `CCOc1ccc2nn(-c3ccc4nn(C)cc4c3)c(=O)c(-c3ccc(Br)cc3)c2n1` [Example 198, 4-(4-bromophenyl)-6-ethoxy-2-(2-methyl-2H-indazol-5-yl)pyrido[3,2-c]pyridazin-3(2H)-one]: the IC50 was < 100 nM in the assay with HCT116 MTAP−/−, < 100 nM in assay [1], ≥ 1000 nM in the assay with HCT116 MTAP+/+ and < 100 nM at MAT2A homodimer.
Consider `Cn1cc2cc(-n3nc4cc(F)c(NCC(F)(F)F)nc4c(-c4ccc(OC(F)F)cc4)c3=O)ccc2n1` [Example 197], for which the IC50 in the assay on HCT116 MTAP−/− was < 100 nM; in assay [1] it was < 100 nM; in the assay with HCT116 MTAP+/+ it was ≥ 1000 nM; at MAT2A homodimer it was < 100 nM.
In the case of `O=c1c(-c2ccc(OC(F)F)cc2)c2nc(OCC(F)F)ccc2nn1-c1ccc(F)cc1` [Example 191], the IC50 with HCT116 MTAP−/− is ≥ 1000 nM; in assay [1] it was 100 to 1000 nM; in the assay with HCT116 MTAP+/+ it was ≥ 1000 nM; on MAT2A homodimer, 100 to 1000 nM.
For the compound `Cn1cc2cc(-n3nc4ccc(OCC(F)(F)F)nc4c(-c4ccc(Cl)cc4)c3=O)ccc2n1` [Example 116], the IC50 in the assay on HCT116 MTAP−/− was < 100 nM; in assay [1] it was < 100 nM; in the assay on HCT116 MTAP+/+, ≥ 1000 nM; at MAT2A homodimer, < 100 nM.
`[2H]C([2H])([2H])Oc1ccc(-c2c(=O)n(-c3ccc4ncsc4c3)nc3ccc(OCC(F)F)nc23)cc1` [Example 151]: the IC50 in the assay with HCT116 MTAP−/− was < 100 nM; in assay [1], < 100 nM; in the assay with HCT116 MTAP+/+ it was ≥ 1000 nM; on MAT2A homodimer it was < 100 nM.
For `Cn1cc2cc(-n3nc4ccc(OCC(F)F)nc4c(C4=CCC(O)CC4)c3=O)ccc2n1` (centres unmarked) [Example 149], the IC50 was 100 to 1000 nM in the assay with HCT116 MTAP−/−, < 100 nM in assay [1], ≥ 1000 nM in the assay with HCT116 MTAP+/+ and < 100 nM on MAT2A homodimer.
As to `O=c1c(-c2ccc(OC(F)F)cc2)c2nc(OCC(F)F)ccc2nn1-c1ccncc1` [Example 188], the IC50 in the assay with HCT116 MTAP−/− was 100 to 1000 nM; in assay [1], 100 to 1000 nM; in the assay on HCT116 MTAP+/+, ≥ 1000 nM; on MAT2A homodimer, < 100 nM.
`Cn1cc2cc(-n3nc4ccc(OCC(F)F)nc4c(-c4ccc(OC(F)(F)F)nc4)c3=O)ccc2n1` [Example 128]: the IC50 is < 100 nM in the assay with HCT116 MTAP−/−, < 100 nM in assay [1], ≥ 1000 nM in the assay on HCT116 MTAP+/+ and < 100 nM on MAT2A homodimer.

The record behind these values is US12077534B2, “Aza-heterobicyclic inhibitors of MAT2A and methods of use for treating cancer” (Les Laboratoires Servier SAS, priority 2018, dated 2024).
